Bounds are passed on as bounds.

In one assay the target is T1, human ENT1 (Homo sapiens, UniProt Q99808).
T1 construct: JAR cells expressing ENT1 were purchased from ATCC; host or cells: JAR cells
T1 sequence (Q99808 1-456): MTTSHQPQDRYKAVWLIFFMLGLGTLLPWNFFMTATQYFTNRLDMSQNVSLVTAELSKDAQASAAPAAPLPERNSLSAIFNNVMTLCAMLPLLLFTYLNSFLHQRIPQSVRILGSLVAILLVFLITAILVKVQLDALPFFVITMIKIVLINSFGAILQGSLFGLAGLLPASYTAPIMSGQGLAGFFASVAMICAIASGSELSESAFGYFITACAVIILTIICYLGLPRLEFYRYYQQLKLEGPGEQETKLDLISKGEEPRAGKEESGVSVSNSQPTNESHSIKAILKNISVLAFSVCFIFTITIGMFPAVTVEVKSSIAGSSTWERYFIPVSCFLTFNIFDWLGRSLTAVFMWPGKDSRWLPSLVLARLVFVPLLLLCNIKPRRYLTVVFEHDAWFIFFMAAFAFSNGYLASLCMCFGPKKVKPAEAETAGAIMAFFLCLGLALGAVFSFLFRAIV
Description: ENT1 binding assay (competition with Sahenta-DY647 on JAR cells). As to conditions: competition with SAHENTA-DY647 binding; IC50 categorized; read-out: Binding Assay IC50. The method, boiled down: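 Whole-cell competition on JAR cells (native ENT1): 50,000 cells pre-incubated 30 min at 4 °C with compound in HBSS/10 mM Hepes/0.1% BSA, then 100 nM Sahenta-DY647 added for 30 min at 4 °C. After washing, fluorescence (Ex 630/Em 670 nm) read; IC50 from sigmoidal fit, averaged as pIC50.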
A word on the IC50: it is the concentration at which inhibition is half-maximal. In the case of `C[C@H]1O[C@@H](n2c(N[C@H]3CCOC3)nc3c(OCc4ccc(C#N)cc4)ncnc32)[C@H](O)[C@@H]1O` [Compound 78], the IC50 lay in the range of 1 to 20 nM.

As to `COCCCNc1nc2c(OCc3ccc(OC(F)F)cc3)ncnc2n1[C@@H]1O[C@H](C)[C@@H](O)[C@H]1O` [Compound 46], the IC50 was 1 to 20 nM.

Regarding `C[C@H]1O[C@@H](n2c(Nc3cnn(C)c3)nc3c(OCc4ccc(OC(F)F)cc4)ncnc32)[C@H](O)[C@@H]1O` [Compound 64], the IC50 fell in the range of 1 to 20 nM.

Consider `CC(=O)N1CCC(Nc2nc3c(OCc4ccc(C#N)cc4)ncnc3n2[C@@H]2O[C@H](C)[C@@H](O)[C@H]2O)CC1` [Compound 80], for which the IC50 was below 1 nM.

As to `Cc1nc(CNc2nc3c(OCc4ccc(C#N)cc4)ncnc3n2[C@@H]2O[C@H](C)[C@@H](O)[C@H]2O)no1` [Compound 68], the IC50 was 1 to 20 nM.

For `C[C@H]1O[C@@H](n2cnc3c(OCc4c(F)cc(F)cc4F)ncnc32)[C@H](O)[C@@H]1O` [Compound 260], the IC50 was above 500 nM.

Consider `C[C@H]1O[C@@H](n2c(NCC3COC3)nc3c(OCc4ccc(OC(F)F)cc4)ncnc32)[C@H](O)[C@@H]1O` [Compound 424], for which the IC50 is above 500 nM.

In the case of `C[C@H]1O[C@@H](n2cnc3c(CCc4ccc([N+](=O)[O-])cc4)ncnc32)[C@H](O)[C@@H]1O` [Compound 210], the IC50 lay within 20 to 500 nM.

For `C[C@H]1O[C@@H](n2ccc3c(SCc4ccc([N+](=O)[O-])cc4)ncnc32)[C@H](O)[C@@H]1O` [Compound 197], the IC50 fell in the range of 20 to 500 nM.

Turning to `C[C@H]1O[C@@H](n2cnc3c(OCc4ccc(OC(F)(F)F)c(Cl)c4)ncnc32)[C@H](O)[C@@H]1O` [Compound 234], the IC50 was above 500 nM.

With `C[C@H]1O[C@@H](n2cnc3c(NCc4cccc(-c5ncco5)c4)ncnc32)[C@H](O)[C@@H]1O` [Compound 380], the IC50 is above 500 nM.

As to `O=[N+]([O-])c1ccc(COc2ncnc3c2nnn3[C@@H]2C[C@H](OCCO)[C@@H](O)[C@H]2O)cc1` [Compound 309], the IC50 is above 500 nM.

Take `C[C@H]1O[C@@H](n2cnc3c(OCc4cc(F)c(C#N)c(F)c4)nc(Cl)nc32)[C@H](O)[C@@H]1O` [Compound 284]: the IC50 was above 500 nM.

As for `C[C@H]1O[C@@H](n2cnc3c(SCc4ccc5ccccc5n4)ncnc32)[C@H](O)[C@@H]1O` [Compound 342], the IC50 was above 500 nM.

For `C[C@H]1O[C@@H](n2cnc3c(N4CCC(c5ccc([N+](=O)[O-])cc5)C4)ncnc32)[C@H](O)[C@@H]1O` (some centres unmarked) [Compound 315], the IC50 is above 500 nM.

In another assay the test system is stimulated primary human T cells. The experiment in a line: T cell proliferation assay, Condition B (X-VIVO15, 2% HSA and 0.1% AAG). It counts as cell-based. As to conditions: Homo sapiens, T-cell, 96 h; Condition B: X-VIVO15 medium containing HSA and α1-Acid Glycoprotein; anti-CD3/anti-CD28 beads, ATP, 4 days; CFSE-lo T cells. The method, then:
The goal of this study was to determine the potency of ENT1 inhibitors by measuring the rescued proliferation of stimulated primary human T cells incubated in the presence of 100 uM Adenosine triphosphate (ATP), in baseline conditions (condition A) or in the presence of various proteins known to bind small molecules (condition B).
Condition B: X-VIVO15, 2% Human Serum Albumin (HSA) and 0.1% α-1-Acid Glycoprotein (AAG)
Venous blood from healthy volunteers, all of whom signed an informed consent approved by the Ethics Committee (FOR—UIC—BV-050-01-01 ICF_HBS_HD Version 5.0), was obtained by ImmuneHealth (Centre Hospitalier Universitaire Tivoli, La Louviere, Belgium). Mononuclear cells were collected by density gradient centrifugation, using SepMate-50 tubes (StemCell Technologies, Grenoble, France) and Lymphoprep (Stemcell Technologies) according to the manufacturer's instructions. CD3+ T cells were isolated by immunomagnetic negative selection, using the EasySep Human T Cell Isolation Kit (StemCell Technologies) as per the manufacturer's instructions. CD3+ T cells were stored in heat inactivated FBS (hiFBS; Gibco, ThermoFisher Scientific, Merelbeke, Belgium) and 10% DMSO in liquid nitrogen.
Purified human CD3+ T cells were thawed and washed once with RPMI1640 medium, UltraGlutamine (Lonza, Verviers, Belgium) containing 10% hiFBS. Cells were resuspended in PBS containing 10% hiFBS at 1×10^7 cells/ml. One volume of cells was combined with a matching volume of 2 μM CFSE solution in PBS, mixed well by pipetting, and incubated at room temperature for 5 minutes under rotation and protected from light. Excess CFSE was quenched by addition of PBS containing 10% hiFBS, and the cells were centrifuged (300×rcf, 7 minutes) and resuspended in X-VIVO15. Cells were again centrifuged and resuspended in X-VIVO15 for counting.
Cells were resuspended at 1.6×10^6 cells/mL in X-VIVO15 medium (Condition A) or X-VIVO15 medium containing 4% (v/v) HSA (Sigma-Aldrich, Diegem, Belgium) and 0.2% (v/v) ai-Acid Glycoprotein (Sigma-Aldrich, Diegem, Belgium) (Condition B).
[…] of cell suspension (2×10^4 cells) was added to wells of sterile flat-bottom 384-well plates. Cells were activated by adding […] of anti-CD3 anti-CD28 coated microbeads (Dynabeads human T-activator CD3/CD28; Life Technologies, Paisley, UK) suspended in X-VIVO15 medium or X-VIVO15 medium containing 4% (v/v) HSA and 0.2% (v/v) ai-Acid Glycoprotein at a ratio of one microbead per two cells. Serial dilutions of the ENT1 inhibitors were conducted in X-VIVO15 medium and […] of the diluent was added to the wells. Cells were mixed by pipetting up and down and pre-incubated for 30 minutes in a 37° C. humidified tissue culture incubator with 5% CO2. After pre-incubation, cells were cultured in the presence or absence of ATP (Sigma-Aldrich) at a final concentration of […]. The final well volume was 50 μl in all cases. Experiments were performed in biological duplicates. Cells were mixed by pipetting up and down and incubated for 4 days in a 37° C. humidified tissue culture incubator with 5% CO2.
Samples were run on a BD LSR Fortessa FACS machine (BD FACSDiva Software v9.0.1). Data were analyzed using FlowJo (BD, v10.7.1). T cell proliferation was determined by measuring the frequency of ‘CFSE^lo’ (i.e. CFSE-diluted).
T cell proliferation data were analyzed using FlowJo software (Version 10.6.2). Dead cells and cellular debris were excluded on the basis of forward and side scatter profile and singlet cells were selected for further analysis.
T cell proliferation was determined based on the percent CFSE^lo total T cells for each condition. The data were plotted on the y-axis against log molar (M) concentration of ENT1 inhibitors on the x-axis in GraphPad Prism (version 9.0.0). IC50 and IC90 values were generated with the ‘log(agonist) vs. response—Find ECanything(F))’ function with F constrained to 50 or 90, respectively. pICF values were generated by taking the −logECF values.
On to `C[C@H]1O[C@@H](n2c(N[C@H]3CCOC3)nc3c(OCc4ccc(C#N)cc4)ncnc32)[C@H](O)[C@@H]1O` [Compound 78], for which the IC50 was 20 to 500 nM.

The molecule `COCCCNc1nc2c(OCc3ccc(OC(F)F)cc3)ncnc2n1[C@@H]1O[C@H](C)[C@@H](O)[C@H]1O` [Compound 46] showed an IC50 of 20 to 500 nM.

For `C[C@H]1O[C@@H](n2c(Nc3cnn(C)c3)nc3c(OCc4ccc(OC(F)F)cc4)ncnc32)[C@H](O)[C@@H]1O` [Compound 64], the IC50 was in the range of 20 to 500 nM.

For `CC(=O)N1CCC(Nc2nc3c(OCc4ccc(C#N)cc4)ncnc3n2[C@@H]2O[C@H](C)[C@@H](O)[C@H]2O)CC1` [Compound 80], the half-maximal inhibitory concentration (IC50) lay in the range of 1 to 20 nM.

As to `Cc1nc(CNc2nc3c(OCc4ccc(C#N)cc4)ncnc3n2[C@@H]2O[C@H](C)[C@@H](O)[C@H]2O)no1` [Compound 68], the IC50 lay within 20 to 500 nM.

Source of the values: patent publication US20260184712A1, “Heterocyclic Compounds as ENT Inhibitors and Compounds for Use in the Treatment of Cancers” (iTeos Belgium SA, priority 2022, published 2026).
